The record followed here is paper PMC10969560, “Eye Drop with Fas-Blocking Peptide Attenuates Age-Related Macular Degeneration” (Cells, 2024).

Data set [1] deals with Fas-expressing Jurkat cells. Description: Size-dependent FBP binding test in Jurkat cells (flow cytometry). The conditions noted are these: N=3, Figure S4A. The source says:
(§1) Figure S4. Size- dependent FBP binding test in Jurkat cells. (A) Size- dependent FBP flow cytometry analysis of binding in Jurkat cells. (B) Size-dependent FBP flow cytometry analysis of apoptosis in Jurkat cells. The data are pres en ted as the mean ± SD (N=3 per group). *P<0.05, ***P<0.001, and ns indicates not

For data set [2], the system named is Jurkat cells. Description: Flow cytometry analysis of Fas/FasL-mediated apoptosis in Jurkat cells. The class given is cell-based. The note with it: N=3, Figure S4B.
Excerpt: as §1

The test system of data set [3] is NaIO3-induced retinal degeneration mice. The conditions noted are these: mouse, in vivo.
Protocol: Retinal degeneration was induced by intravenous injection of NaIO3 (30 mg/kg) in 6-week-old male BALB/c mice (N = 3 per group), weighing 18–22 g (Orient Bio, Seoul, Korea). The eye drop administration group received peptides dissolved in PBS at dosages of 10 mg/mL (50 μg/5 μL) per ocular instillation. For intravitreal administration, peptide solutions dissolved in PBS were administered into the vitreous humor at a concentration of 1 mg/mL (1 μg/1 μL) per administration.
The N-terminal of the target peptide was fluorescently tagged using Alexa Fluor™ 647 NHS Ester (Succinimidyl Ester) (Invitrogen, Carlsbad, CA, USA), following the manufacturer’s protocol. Subsequently, free dye molecules were removed through a PD-10 desalting column (GE Healthcare, Milwaukee, WI, USA). Seven days after induction with NaIO3, Alexa647-conjugated peptides were administered via eye drops. Twelve hours after the last administration, organs were harvested for experiments, and Alexa647 signals were detected on whole organs using a FOBI imaging machine ([sequence], Cheongju, Republic of Korea).
For IHC, eyes were harvested and embedded in the Tissue-Tek® OCT Compound (Sakura Finetek Europe BV, Alphen aan den Rijn, The Netherlands) to prepare cryoblocks for cryosectioning. After freezing the eyes in the Tissue-Tek® OCT Compound, the eyes were cryosectioned to a thickness of 10 μm and mounted with ProLong™ Glass Antifade Mountant with NucBlue™ Stain (Invitrogen). The anti-Fas rabbit mAb (#4233S, Cell Signaling Technology, Danvers, MA, USA) was used to capture the Fas receptor, and the Fas antibody was subsequently detected using Goat Anti-Rabbit IgG H&L (Alexa Fluor® 488) (ab150077, Abcam, Cambridge, UK). A ZEISS Axio Scan.Z1 Slide Scanner (Carl Zeiss, Oberkochen, Germany) was employed to detect NucBlue™ stained cell nuclei and the Alexa647-conjugated peptide signals.
Data set [4] shares this test system. Description: In vivo real-time PCR of eye posterior hemisphere in NaIO3-induced retinal degeneration mouse model. On the set-up: species or system BALB/c mice. The note with it: eye drop application, N=3, Figure 3D; for expression of Fas receptor, inflammatory cytokines, and macrophages compared to the mock group (qPCR): posterior hemisphere. An excerpt:
The mouse eye posterior hemisphere was dissected using Vannas scissors. Subsequently, total RNA was extracted from the posterior hemisphere of the left eye using the RNAiso kit (Takara). RNA was reverse-transcribed with the High-Capacity cDNA Reverse Transcription Kit (Applied Biosystems, Waltham, MA, USA) and quantified using PowerUp™ SYBR™ Green Master Mix (Thermo Fisher Scientific, Waltham, MA, USA) on an ABI 7500 Fast Real-Time PCR system (Applied Biosystems, Waltham, MA, USA). Relative expression was determined using the ΔΔCt method, normalized against GAPDH mRNA levels. The primer sequences used are depicted in Table 2.

Data set [5] has as its system NaIO3-induced retinal degeneration rabbits. Description: H&E staining, ONL to total retinal thickness, in NaIO3-induced retinal degeneration rabbits. The class given is in vivo, chinchilla rabbits. The conditions noted are these: rabbit, eye drops twice daily; Day 14; N=4; Figure 4D. The method, then: (§2) The efficacy of the treatment was evaluated through an experiment conducted by KNOTUS, a contract research organization. In brief, retinal degeneration was induced by intravenous injection of NaIO3 (60 mg/kg) in 20 chinchilla rabbits, weighing 2 kg.
(§3) The eye drop administration group received dosages of 5 mg/mL (250 μg/50 μL) per ocular instillation. For intravitreal administration, peptide solutions (5 mg/mL) were administered in increments of 40 μL per administration. A pipette was used to administer the test substance onto the central cornea of the right eye for each experimental group.
(§4) Anesthetized animals were administered the test substance via subconjunctival injection into the right eye using a 31-gauge syringe needle attached to a syringe. In the case of eye drop administration, the peptides and PBS were administered twice daily for 2 weeks, for a total of 28 administrations. For intravitreal administration, a single dose of the peptide was administered the day after the NaIO3 injection.
On the concluding day of the experiment (Day 14), the animals were anesthetized using the previously described mixture of Zoletil®50 and Rompun^TM, after which they were sacrificed. NaIO3-induced retinal degeneration eyes were then extracted, and the central cornea was punctured using an injection needle. Subsequently, the specimens were fixed in a 10% neutral buffered formalin solution. For histopathological examination, the fixed tissues were subjected to processes such as fixation, dehydration, paraffin embedding, and sectioning. H&E staining was then performed, and the proportion (%) of the thickness of the outer nuclear layer (ONL) to the overall retinal thickness was calculated using an Olympus BX-53 optical microscope (Olympus, Tokyo, Japan). Two slides were prepared per eyeball relative to the optic nerve. Measurements were taken at three points on each slide, amounting to a total of six values, which were averaged.

Data set [6] concerns NaIO3-induced retinal degeneration mice. Description: TUNEL assay in NaIO3-induced retinal degeneration mouse model. Type of data set: in vivo, BALB/c mice. The conditions noted are these: eye drop application, N=3, Figure 3C. The method, then: (§5) To confirm the therapeutic effect of 6R-FBP, histological evaluation was conducted through hematoxylin and eosin (H&E) staining and the TUNEL assay. The eyes were fixed with 4% paraformaldehyde in PBS at room temperature for 20 min. After fixation, the eyes were sequentially incubated in 10%, 20%, and 30% (w/v) sucrose solution diluted in PBS for 30 min each at room temperature. Subsequently, the eyeballs were sagittally halved with a razor blade and embedded in Tissue-Tek® OCT Compound, and then frozen immediately in a liquid nitrogen chamber. Trimming was minimized to maintain controlled distances and ensure consistency, and sections were sliced at a thickness of 10 μm. Sections from the eye cryoblock were used for H&E staining and the TUNEL assay. The TUNEL assay was conducted according to the manufacturer’s protocol using the TUNEL assay kit (Abcam).

Data set [7] deals with NaIO3-induced retinal degeneration rabbits. Description: Fundus imaging of RPE degenerated area in NaIO3-induced retinal degeneration rabbit model. The class given is in vivo, chinchilla rabbits. The note with it: NaIO3 60 mg/kg i.v., eye drops 5 mg/mL (250 μg/50 μL) twice daily for 14 days, N=4, Figure 4B. The method, then:
as §2, §3, §4
Before the administration of NaIO3 (Day 0) and upon concluding the experiment (Day 14), the right eyes of the rabbits were treated with a mydriatic agent (1% midriacyl eye drops). Subsequently, the rabbits were anesthetized with a mixture of Zoletil®50 (Virbac, Carros, France) and Rompun^TM (Bayer AG, Leverkusen, Germany) through intravenous injection (marginal ear vein) at a dosage of 0.1 mL/kg. Fundus imaging was conducted using a fundus camera (TRC-50IX, TOPCON, Tokyo, Japan). The retinal images were analyzed using Image J software version 1.54d (NIH, Bethesda, MD, USA) to determine the area of degeneration in the RPE, with the RPE injury area being manually selected. The total area of the retina, excluding the optic nerve region, was defined as the total area. The proportion of degenerated area was calculated as a percentage using Equation (1). Degenerated area (%) = Degenerated area/Total area(1)

Data set [8] has as its system NaIO3-induced retinal degeneration mice. Description: H&E histology in NaIO3-induced retinal degeneration mouse model. Type of data set: in vivo, BALB/c mice. The conditions noted are these: eye drop application, NaIO3 30 mg/kg i.v., peptides 10 mg/mL (50 μg/5 μL), N=3, Figure 3B. As for the experimental part: as §5
Data set [9] deals with ARPE-19 cells.
Protocol: To confirm the cytotoxicity of CPP-conjugated FBP (4R-FBP, 5R-FBP, 6R-FBP, 9R-FBP) on ARPE-19 cells, the cells were plated in a 12-well plate at a density of 2 × 10^5/mL. After 24 h of treatment with various peptides (4R-FBP, 5R-FBP, 6R-FBP, 9R-FBP, and FBP), the CCK-8 assay was performed as per the manufacturer’s protocol.
Peptide toxicity was assessed
using CCK-8 assay in ARPE-19 cell. The data are presented as the mean ± SD (N=3 per group). ns
In data set [10] the test system is Fas. Description: RT-PCR of Fas expression in NaIO3-treated ARPE-19 cells. The class given is cell-based, human. The conditions noted are these: ARPE-19, NaIO3 10 mM + peptide 700 μM, 24 h; N=3; Figure 1A. As for the experimental part:
After 24 h of treatment with NaIO3 (10 mM) and the FBP peptide (700 μM), the cells were harvested for analysis. Total RNA from the ARPE-19 cells was extracted using the RNAiso kit (Takara, Kyoto, Japan). Total RNA was reverse-transcribed into cDNA using the High-Capacity cDNA Reverse Transcription Kit (Applied Biosystems, Waltham, MA, USA). The quantification of gene expression was performed using PowerUp™ SYBR™ Green Master Mix (Thermo Fisher Scientific, Waltham, MA, USA) on an ABI 7500 Fast Real-Time PCR system (Applied Biosystems, Waltham, MA, USA). The sequences of primer pairs used for real-time PCR are depicted in Table 2.

Data set [11] concerns ARPE-19 cells. Description: Annexin V/PI flow cytometry apoptosis analysis in NaIO3-treated ARPE-19 cells. Type of data set: cell-based, human. The note with it: ARPE-19, NaIO3 10 mM + peptide 700 μM, 24 h; N=3; Figure 1B. As for the experimental part: The efficacy of FBP on the inhibition of ARPE-19 cell apoptosis was assessed through annexin V/propidium iodide (PI) staining, followed by flow cytometry analysis. […] After 24 h of treatment with NaIO3 (10 mM) and the FBP peptide (700 μM), the cells were harvested and stained using the Dead Cell Apoptosis Kits with annexin V for Flow Cytometry (Invitrogen, Carlsbad, CA, USA), following the manufacturer’s protocol. The stained cells were collected and analyzed using a BD FACSCalibur™ system (Becton Dickinson, Franklin Lakes, NJ, USA).

Data set [12] has as its system cleaved caspase-3 and 8. Description: Western blot of apoptosis-related proteins in NaIO3-treated ARPE-19 cells. The note with it: ARPE-19, NaIO3-treated; Figure 1C. Type of data set: cell-based, human. The method, then:
Total protein samples were extracted from ARPE-19 cells using ice-cold RIPA buffer containing a protease inhibitor cocktail. A 4× sample buffer containing Tris-(2-Carboxyethyl)phosphine (Invitrogen, Carlsbad, CA, USA) was prepared by mixing 950 µL of 4× Laemmli sample buffer (GenDEPOT) with 50 µL of Tris-(2-Carboxyethyl)phosphine (Invitrogen). Protein samples (15 μg) were diluted in the sample buffer and heated at 95 °C for 5 min. The samples were then loaded onto a 12% SDS-PAGE gel and transferred onto a PVDF transfer membrane. The blots were probed with rabbit anti-cleaved caspase-3 (1:1000, Abcam, Cambridge, UK, ab52293), anti-cleaved caspase-8 (1:1000, Abcam, ab25901) and rabbit polyclonal anti-Fas (1:1000, Abcam, ab82419). Secondary polyclonal antibodies were probed with rabbit IgG coupled to HRP (1:2000, Abcam, ab97051). Finally, the blots were developed using ECL Western blotting substrate (Promega, Madison, WI, USA).

On to “CDEHF [5-mer, 5-mer truncated FBP, CDEHF]”, for which the “binding to Fas-expressing Jurkat cells” value in [1] is given as “demonstrated binding”. Also, the “inhibition of Fas/FasL-mediated apoptosis” value in data set [2] is reported as “could not inhibit”.
In the case of RRRRRRGGGGYCDEHFCY [6R-FBP], the “size-dependent retinal delivery (confocal, Alexa647 signal)” value in data set [3] is listed as “robust fluorescence signals”. Also, in data set [4], the “levels of M2 macrophages compared to the mock group (qPCR, CD206)” value is recorded as “increased levels”; the “expression of Fas receptor, inflammatory cytokines, and macrophages compared to the mock group (qPCR)” value is on record as “decreased expression”. The “proportion of thickness of ONL to total retinal thickness compared with mock group (H&E)” value in data set [5] is given as “maintenance of the ONL”. The “apoptosis levels in retina (TUNEL)” value in data set [6] is “lower apoptosis levels”. In addition, the “RPE degeneration compared with mock treatment (fundus imaging)” value in data set [7] is reported as “significant reduction in RPE degeneration”. The “therapeutic effect on integrity of the retinal layer (H&E staining)” value (“therapeutic effect on integrity” below) in data set [8] was “therapeutic effects”. Further, in [9], the “toxicity of CPP-conjugated FBP in retinal cells” value was “lower toxicity”.
With `C[C@@H]1C[C@H]2[C@@H]3CCC4=CC(=O)C=C[C@]4(C)[C@@]3(F)[C@@H](O)C[C@]2(C)[C@@]1(O)C(=O)CO` [Dexa, dexamethasone, reference compound], in [4], the “levels of M2 macrophages compared to the mock group (qPCR, CD206)” value is listed as “increased levels”; the “expression of Fas receptor, inflammatory cytokines, and macrophages compared to the mock group (qPCR)” value is “decreased expression”. For the same compound, the “apoptosis levels in retina (TUNEL)” value in data set [6] is “lower apoptosis levels”. The “therapeutic effect on integrity” value in data set [8] is “therapeutic effects”.
For “GGGRRGGG [Ctrl, nonspecific control peptide, GGGRRGGG, reference compound]”, in data set [10], the “expression of Fas (RT-PCR)” value is given as “increased”. In [6], the “apoptosis levels in retina (TUNEL)” value is “higher apoptosis levels”. Moreover, in data set [11], the “apoptosis (annexin V/PI staining) compared with mock group” value is “no protective effects against apoptosis”. In addition, in [8], the “therapeutic effect on integrity” value was “no therapeutic effect”. For the same compound, the “levels of cleaved caspase-3 and 8 (Western blot)” value in data set [12] was “upregulation”.
DEHF [4-mer, 4-mer truncated FBP, DEHF]: in [3], the “size-dependent retinal delivery (confocal, Alexa647 signal)” value was “successfully delivered”. In addition, the “binding to Fas-expressing Jurkat cells” value in [1] is reported as “demonstrated binding”. Further, the “inhibition of Fas/FasL-mediated apoptosis” value in data set [2] was “could not inhibit”.
